Results taken from ChEMBL document CHEMBL6134800, “Applications of innovative synthetic strategies in anticancer drug discovery: The driving force of new chemical reactions” (Bioorg Med Chem Lett, 2025).
Values after ≈ are worked out from the molar mass of the structure shown.

Legend:
HCT-116 [1] = assay: Anticancer activity against human HCT-116 cells assessed as reduction in cell viability; type: functional, cell-based
HCT-116 [2] = assay: Anticancer activity against human HCT-116 cells assessed as inhibition of cell viability at 20 uM relative to control; type: functional
HeLa [3] = assay: Antiproliferative activity against human HeLa cells assessed as reduction in cell growth by MTT assay; type: functional, cell-based
A549 [4] = assay: Antiproliferative activity against human A549 cells assessed as reduction in cell growth by MTT assay; type: functional, cell-based
HL-60 = assay: Cytotoxicity against human HL-60 cells assessed as reduction in cell growth by resazurin assay; type: functional, cell-based
BXPC-3 = assay: Antiproliferative activity against human BXPC-3 cells assessed as reduction in cell growth incubated for 72 hrs by MTT assay; type: functional, cell-based
A549 [5] = assay: Growth inhibition of human A549 cells measured for 48 hrs by SRB assay; type: functional
[6] = Antioxidant activity assessed as hydroxyl radical scavenging activity; type: functional
MCF7 [7] = assay: Growth inhibition of human MCF7 cells measured for 48 hrs by SRB assay; type: functional
PC-3 = assay: Growth inhibition of human PC-3 cells measured for 48 hrs by SRB assay; type: functional
HepG2 [8] = assay: Growth inhibition of human HepG2 cells measured for 48 hrs by SRB assay; type: functional
[9] = Antioxidant activity assessed as DPPH radical scavenging activity; type: functional
A549 [10] = assay: Antiproliferative activity against human A549 cells assessed as reduction in cell viability incubated for 24 hrs by MTT assay; type: functional, cell-based; settings: A549, 24 h
DU-145 = assay: Cytotoxicity against human DU-145 cells assessed as reduction in cell viability incubated for 48 hrs by SRB assay; type: functional, cell-based; settings: DU-145, 48 h
MCF7 [11] = assay: Cytotoxicity against human MCF7 cells assessed as reduction in cell viability incubated for 48 hrs by SRB assay; type: functional, cell-based; settings: MCF7, 48 h
MDA-MB-231 [12] = assay: Cytotoxicity against human MDA-MB-231 cells assessed as reduction in cell viability incubated for 48 hrs by SRB assay; type: functional, cell-based; settings: MDA-MB-231, 48 h
HeLa [13] = assay: Cytotoxicity against human HeLa cells assessed as reduction in cell viability incubated for 48 hrs by SRB assay; type: functional, cell-based
HepG2 [14] = assay: Cytotoxicity against human HepG2 cells assessed as reduction in cell viability incubated for 48 hrs by SRB assay; type: functional, cell-based; settings: HepG2, 48 h
Escherichia coli = assay: Antimicrobial activity against Escherichia coli assessed as reduction in microbial growth; type: functional, organism-based
Bacillus subtilis = assay: Antibacterial activity against Bacillus subtilis assessed as reduction in bacterial growth; type: functional, organism-based
[15] = Cytotoxicity against human BEAS-2B cells assessed as reduction in cell viability by MTT assay; type: toxicity, cell-based
NIH3T3 = assay: Cytotoxicity against mouse NIH/3T3 cells assessed as reduction in cell growth by resazurin assay; type: functional, cell-based
A549 [16] = assay: Cytotoxicity against human A549 cells assessed as reduction in cell growth by resazurin assay; type: functional, cell-based
MCF7 [17] = assay: Antiproliferative activity against human MCF7 cells; type: functional, cell-based
T47D = assay: Antiproliferative activity against human T47D cells; type: functional, cell-based
MDA-MB-231 [18] = assay: Antiproliferative activity against human MDA-MB-231 cells; type: functional, cell-based
LoVo = assay: Antiproliferative activity against human LoVo cells; type: functional, cell-based
HCT-116 [19] = assay: Antiproliferative activity against human HCT-116 cells; type: functional, cell-based
MCF7 [20] = assay: Cytotoxicity against human MCF7 cells assessed as reduction in cell viability by MTT assay; type: functional, cell-based
A549 [21] = assay: Cytotoxicity against human A549 cells assessed as reduction in cell viability by MTT assay; type: functional, cell-based
HeLa [22] = assay: Antiproliferative activity against human HeLa cells assessed as reduction in cell viability incubated for 48 hrs by MTT assay; type: functional, cell-based
[23] = molecular target: Cyclin-dependent kinases regulatory subunit 1/S-phase kinase-associated protein 2 (Homo sapiens) (UniProt P61024+Q13309); assay: Inhibition of SKP2/CKS1 (unknown origin) protein-protein interaction at 50 uM relative to control; type: protein assay
Cyclin-dependent kinases regulatory subunit 1/S-phase kinase-associated protein 2 (Homo sapiens), sequence (P61024 2-79 limits assumed): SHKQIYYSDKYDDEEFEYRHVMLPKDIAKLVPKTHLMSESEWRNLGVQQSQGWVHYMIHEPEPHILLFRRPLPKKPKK
Cyclin-dependent kinases regulatory subunit 1/S-phase kinase-associated protein 2 (Homo sapiens), sequence (Q13309 whole entry partner): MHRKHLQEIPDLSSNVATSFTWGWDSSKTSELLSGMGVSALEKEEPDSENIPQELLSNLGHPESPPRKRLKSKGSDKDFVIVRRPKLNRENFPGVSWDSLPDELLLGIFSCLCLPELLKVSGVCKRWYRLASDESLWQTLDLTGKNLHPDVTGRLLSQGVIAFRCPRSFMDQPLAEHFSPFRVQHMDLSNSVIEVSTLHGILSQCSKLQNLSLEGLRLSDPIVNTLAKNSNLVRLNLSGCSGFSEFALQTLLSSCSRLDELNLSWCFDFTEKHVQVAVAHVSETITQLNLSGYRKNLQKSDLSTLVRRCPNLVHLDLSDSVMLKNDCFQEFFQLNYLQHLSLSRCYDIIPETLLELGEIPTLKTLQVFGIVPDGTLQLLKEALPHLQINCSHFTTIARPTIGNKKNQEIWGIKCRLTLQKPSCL

For `CC(C)OC(=O)C1=CN(c2ccc3ccccc3c2)CC(O)(c2ccccc2)O1` (stereo unspecified), which IC50 (HCT-116 [1]) is on record?
The IC50 was 9.4 µM.

And the inhibition at 20 µM (HCT-116 [2])?
Its inhibition at 20 µM is 56%.

What does the source list for `OC1(C(F)(F)F)C=C(c2ccccc2)c2cc3ccccc3n21` (stereo unspecified)?
IC50 (HeLa [3]): 2.17 µM; IC50 (A549 [4]): 11.9 µM

Which IC50 (HeLa [3]) does the source give for `Cc1c2n(c3ccc(F)cc13)C(O)(C(F)(F)F)C=C2c1ccccc1` (stereo unspecified) here?
Its IC50 is 2.69 µM.

And the IC50 (A549 [4])?
The IC50 was 6.34 µM.

With `CC(C)OC(=O)C1=CN(c2cccc(Br)c2)CC(O)(c2ccccc2)O1` (stereo unspecified) as the molecule, how does the IC50 (HCT-116 [1]) read?
Its IC50 is 7.6 µM.

What about the inhibition at 20 µM (HCT-116 [2]) of the same molecule?
The inhibition at 20 µM was 59%.

Which IC50 (HL-60) does the source give for `CC(C)C[C@H](NC(=O)[C@H](Cc1ccccc1)NC(=O)c1cnccn1)B(O)O` [BORTEZOMIB] here?
The IC50 was 7.42 µM.

Which IC50 (BXPC-3; bxpc-3) does the source give for `Cc1ccc([C@H]2NC(=O)n3c(cc4ccccc43)C23CC3)cc1` (stereo in doubt; 16a) here?
Its IC50 is 8.6 µM.

With `O=C1O[C@H]([C@@H](O)CO)C(O)=C1O` [ASCORBIC ACID] as the molecule, how does the GI50 (A549 [5]) read?
The GI50 was < 10 µg/mL.

What about the IC50 [6] of the same molecule?
The IC50 was 25.1 µM.

And the GI50 (MCF7 [7])?
Its GI50 is < 10 µg/mL.

And the GI50 (PC-3)?
Its GI50 is < 10 µg/mL.

And the GI50 (HepG2 [8])?
The GI50 was < 10 µg/mL.

And the IC50 [9]?
The IC50 was 27.3 µM.

With `CC(C)OC(=O)C1=CN(c2ccccc2)CC(O)(c2cccc(Cl)c2)O1` (stereo unspecified) as the molecule, how does the IC50 (HCT-116 [1]) read?
Its IC50 is 7.1 µM.

And the inhibition at 20 µM (HCT-116 [2])?
Its inhibition at 20 µM is 77%.

With `CN1C(=O)C2(N=C(c3ccccc3)N3CCc4cc(Br)cc2c43)c2ccccc21` (stereo unspecified) as the molecule, how does the IC50 (A549 [10]) read?
The IC50 was 1 µM.

With `CCOC(=O)c1sc(-c2ccc(OCC(C)C)c(C(Nc3ccc(OC)cc3)P(=O)(OCC)OCC)c2)nc1C` (stereo unspecified) as the molecule, how does the IC50 (DU-145) read?
Its IC50 is 3.02 µg/mL (≈ 5.11 µM).

What about the IC50 (MCF7 [11]) of the same molecule?
The IC50 was 12.5 µg/mL (≈ 21.2 µM).

What about the IC50 (MDA-MB-231 [12]) of the same molecule?
The IC50 was 8.18 µg/mL (≈ 13.8 µM).

What about the IC50 (HeLa [13]) of the same molecule?
Its IC50 is 10.7 µg/mL (≈ 18.1 µM).

And the IC50 (HepG2 [14])?
The IC50 was 22 µg/mL (≈ 37.3 µM).

Which IC50 (Escherichia coli) does the source give for `C[C@H]1c2cccc(O)c2C(=O)C2=C(O)[C@]3(O)C(=O)C(C(N)=O)=C(O)[C@@H](N(C)C)[C@@H]3[C@@H](O)[C@@H]21` [DOXYCYCLINE ANHYDROUS] here?
Its IC50 is 0.1 µM.

What about the IC50 (Bacillus subtilis) of the same molecule?
The IC50 was 0.126 µM.

Which GI50 (A549 [5]) does the source give for `COc1cccc2c1C(=O)c1c(O)c3c(c(O)c1C2=O)C[C@@](O)(C(=O)CO)C[C@@H]3O[C@H]1C[C@H](N)[C@H](O)[C@H](C)O1` [DOXORUBICIN] here?
Its GI50 is < 10 µg/mL.

And the IC50 [15]?
The IC50 was 4.18 µg/mL (≈ 7.69 µM).

And the GI50 (MCF7 [7])?
The GI50 was < 10 µg/mL.

What about the GI50 (PC-3) of the same molecule?
Its GI50 is < 10 µg/mL.

And the GI50 (HepG2 [8])?
Its GI50 is < 10 µg/mL.

And the IC50 (NIH3T3)?
Its IC50 is 5.65 µM.

And the IC50 (A549 [16])?
Its IC50 is 0.31 µM.

For `CCc1cc(C(=O)c2ccccc2Cl)c(NC(c2ccc(F)cc2)c2c(O)ccc3ccccc23)s1` (stereo unspecified), which GI50 (A549 [5]) is on record?
Its GI50 is < 10 µg/mL.

And the IC50 [6]?
The IC50 was 31.3 µM.

And the GI50 (MCF7 [7])?
The GI50 was < 10 µg/mL.

And the GI50 (PC-3)?
The GI50 was < 10 µg/mL.

What about the GI50 (HepG2 [8]) of the same molecule?
The GI50 was < 10 µg/mL.

What about the IC50 [9] of the same molecule?
Its IC50 is 29.8 µM.

For `C=C1N(S(=O)(=O)c2ccc(C)cc2)c2ccccc2C1(C)N` (racemic), which IC50 (MCF7 [17]) is on record?
Its IC50 is 3.92 µM.

And the IC50 (T47D)?
Its IC50 is 5.37 µM.

And the IC50 (MDA-MB-231 [18])?
Its IC50 is 3.13 µM.

And the IC50 (LoVo)?
The IC50 was 10.3 µM.

What about the IC50 (HCT-116 [19]) of the same molecule?
Its IC50 is 12.6 µM.

For `N#CC1=C(N)Oc2ccccc2C1P(=O)(OCc1ccccc1)OCc1ccccc1` (stereo unspecified), which IC50 (Escherichia coli) is on record?
Its IC50 is > 10 µM.

What about the IC50 (NIH3T3) of the same molecule?
Its IC50 is 8.73 µM.

And the IC50 (A549 [16])?
Its IC50 is 26.5 µM.

What about the IC50 (HL-60) of the same molecule?
Its IC50 is 6.25 µM.

And the IC50 (Bacillus subtilis)?
The IC50 was > 10 µM.

Which IC50 (MCF7 [20]) does the source give for `COC(=O)c1nc2nc(Oc3ccccc3)c(C#N)c(-c3cccc([N+](=O)[O-])c3)c2c(N)c1C(=O)OC` here?
The IC50 was 1.48 µg/mL (≈ 2.96 µM).

And the IC50 (A549 [21])?
The IC50 was 6.12 µg/mL (≈ 12.3 µM).

And the IC50 [15]?
The IC50 was 4.09 µg/mL (≈ 8.19 µM).

Which IC50 (HeLa [22]) does the source give for `Cc1nn(-c2ccc(C(C)C)cc2)c(O)c1-c1ccccc1C1=Nc2ccccc2C1(C)C` here?
The IC50 was 23.8 µM.

With `COc1ccc(N2C(=O)c3ccccc3C2Cc2cc(-c3c(OC)cc(OC)cc3OC)n3ncnc3n2)cc1` (stereo unspecified) as the molecule, how does the inhibition [23] read?
The inhibition was 54%.

Which IC50 (MCF7 [20]) does the source give for `COC(=O)c1nc2nc(Oc3ccccc3)c(C#N)c(-c3ccc([N+](=O)[O-])cc3)c2c(N)c1C(=O)OC` here?
The IC50 was 7.57 µg/mL (≈ 15.2 µM).

What about the IC50 (A549 [21]) of the same molecule?
Its IC50 is 8.24 µg/mL (≈ 16.5 µM).

What about the IC50 [15] of the same molecule?
Its IC50 is 51.3 µg/mL (≈ 103 µM).

For `Cc1ccc([C@H]2NC(=O)n3c(cc4ccccc43)C23CC3)cc1` (stereo in doubt; (R)-16a), which IC50 (BXPC-3; Homo sapiens, BXPC-3, 72 h) is on record?
Its IC50 is 6.1 µM.

Which IC50 (LoVo) does the source give for `O=C(CCCCCCC(=O)Nc1ccccc1)NO` [VORINOSTAT] here?
Its IC50 is 0.74 µM.

What about the IC50 (HCT-116 [19]) of the same molecule?
The IC50 was 10.1 µM.

Which IC50 (HeLa [22]) does the source give for `Cc1nn(-c2ccc(C#N)cc2)c(O)c1-c1ccccc1C1=Nc2ccccc2C1(C)C` here?
Its IC50 is 27.3 µM.
